2 compounds from patent publication US10406157B2, “Tetrahydropyridopyrazine modulators of GPR6” (Takeda Pharmaceutical Company Limited, priority 2017, dated 2019) can be followed below.

Molecules are shown by their SMILES.

Series [1] deals with GPR6 receptor expressed in CHO-K1 cells (Homo sapiens (Human), UniProt P46095). Nature of the series: In vitro inhibition of constitutive cAMP activity of GPR6 receptor (EC50). It counts as cell-based. The conditions noted are these: CHO-K1 cells expressing GPR6.
Description: This cell-based assay measures the ability of test compounds to inhibit the constitutive cAMP activity of GPR6 receptor expressed in CHO-K1 cells. CHO cells are stably expressed with GPR6 receptor, whose expression is controlled by a tetracycline inducible element. The cells were cultured in medium containing F12K, 10% FBS, 1% Penn/Strep, 200 μg/mL Hygromycin. GPR6 receptor expression is induced for 20 hours with 2 μg/mL doxycycline (Sigma D9891) in growth media. After addition of doxycycline, the cells are plated at a density of 450-750 cells per well in 96-well half-volume black tissue culture plates (Costar) and placed in an incubator (37° C., 5% CO2) for 20 hours prior to cAMP assays.
Culture media is removed from the cells and they are washed with 50 μL/well of Ringer's Buffer (MgCl2 0.047 mg/mL, NaH2PO4 0.18 mg/mL, Na2HPO4 0.1 mg/mL, KCl 0.34 mg/mL, NaHCO31.26 mg/mL, D-glucose 1.8 mg/mL, NaCl 7 mg/mL; pH=7.4). The test compounds are suspended in DMSO, diluted in Ringer's Buffer containing 0.5% fatty acid free BSA plus 300 μM 3-isobutyl-1-methylxanthine (IBMX), and incubated on the cells for 45 minutes at 37° C. and 5% CO2. […] Then ULIGHT™-anti-cAMP solution from the LANCE® kit is added and incubated on a shaker at room temperature for 1 hour prior to homogeneous time resolved fluorescence (HTRF) detection in a PerkinElmer EnVision plate reader. […]
The target in series [2] is human hERG (Homo sapiens (Human), UniProt Q12809). The series is described as follows: Inhibition of human hERG via automated whole cell patch clamp. The conditions noted are these: for IC50: CHO-K1 cells transfected with human hERG cDNA, patch clamp; for safety margin relative to inhibition of hERG: statement in words. It counts as cell-based. The procedure: An automated whole cell patch-clamp system (QPATCH® 16) is used to record outward potassium currents from a single cell. The assay employs CHO-K1 (Chinese Hamster Ovary) cells stably transfected with human hERG cDNA. The cells are harvested by trypsinization and maintained in serum-free medium at room temperature before recording. The cells are washed and re-suspended in the extracellular solution before being applied to the automated patch-clamp sites. The test solutions are prepared in the aqueous extracellular solution (137 mM NaCl, 4 mM KCl, 1.8 mM CaCl2), 1 mM MgCl2, 10 mM D(+)-Glucose, 10 mM HEPES, pH adjusted to 7.4 with NaOH) on the day of patch-clamp assay. Seven concentrations (0.03, 0.1, 0.3, 1, 3, 10, and 30 μM) of the test compound are used to determine IC50. The aqueous intracellular solution contains 130 mM KCl, 10 mM NaCl, 1 mM MgCl2, 10 mM EGTA, 5 mM MgATP, and 10 mM HEPES (pH adjusted to 7.2 with KOH).
After whole cell configuration is achieved, the cell is held at −80 mV. A 50 ms pulse to −40 mV is delivered to measure the leaking current, which is subtracted from the tail current on-line. Then the cell is depolarized to +20 mV for 2 seconds, followed by a 1 second pulse to −40 mV to reveal the hERG tail current. This paradigm is delivered once every 5 seconds to monitor the current amplitude. The assay is conducted at room temperature. The extracellular solution (control) is applied first and the cell is stabilized in the solution for 5 minutes. Then the test compound is applied from low to high concentrations sequentially on the same cell. The cells are incubated with each test concentration for 5 minutes. A reference compound E-4031 (N-(4-(1-(2-(6-methylpyridin-2-yl)ethyl)piperidine-4-carbonyl)phenyl)methanesulfonamide) is tested concurrently at multiple concentrations to obtain an IC50 value. The percent inhibition of hERG channel is calculated by comparing the tail current amplitude before and after application of the compound (the current difference is normalized to the control).

Series [3] concerns the target human GPR6 (Homo sapiens (Human), UniProt P46095). The settings on record: membranes from CHO-K1 cells expressing human GPR6, 3H radioligand.
Description: A competition binding assay using a filtration-based format is used to study the binding characteristics of GPR6 inverse agonists. The method employs membranes prepared from CHO-K1 cells expressing human GPR6 cDNA driven by a doxycycline inducible promoter. Assay ready 96 well plates (651201, Greiner, USA) containing serial dilutions of test compounds (1 μL of test ligand/well) are prepared in DMSO using liquid handlers (5 μM, final assay top concentration). Assay buffer (50 mM Tris, pH 7.4, 50 mM NaCl, 6 mM MgCl2, fatty acid free 0.1% BSA, 1:100 proteinase inhibitor cocktail, Sigma USA) is added (39 μL/well) and the plates are mixed on a plate shaker for 10 minutes. GPR6-specific ^3H radioligand is prepared in assay buffer and is added to each well (40 μL, 2.4 nM final assay concentration).
To initiate the binding reactions, 40 μL of total membranes obtained from cells expressing human GPR6 receptors is added. The membranes are prepared in assay buffer and added per well to 15 μg/well final assay concentration. […] Scintillator sheet (1450-411, PerkinElmer, USA) is melted on filters and heat-sealed before CPM/well were quantified in MICROBETA® Trilux instrument (PerkinElmer, USA). […] The IC50 and Ki values are calculated using non-linear regression analysis in Prism (GraphPad, USA). Kd values are determined in standard radioligand saturation experiments.
Series [4] relates to 6-OHDA rat model. The series is described as follows: 6-Hydroxydopamine (6-OHDA) rat model of Parkinson's disease, locomotor activity. It counts as in vivo. The procedure: Compounds that improve motor activity are considered promising as potential therapies for Parkinson's disease. Rats of the 6-OHDA model of Parkinson's disease received bilateral injections of 6-OHDA into the striatum and coordinates Anterior-Posterior (AP): Medial-Lateral (ML): Dorsal-Ventral (DV), 1±3, −5 mm relative to Bregma under anaesthesia. Rats were tested for locomotor activity at least 28 days later.
Locomotor activity was measured in an open field arena covered in an array of infrared beams. Beam breaks by the animals were processed using AMLOGGER software to monitor activity.

The test system of series [5] is conscious beagle dogs. Nature of the series: Effects on the cardiovascular system using telemetry in conscious beagle dogs. It is filed as in vivo, dog. The settings on record: single oral gavage doses 30, 100 and 300 mg/kg, compared to vehicle. The source says:
The beagle dogs are equipped with telemetry devices from DSI PHYSIOTEL® Digital L21 transmitter implants according to the appropriate Charles River Laboratories, Montreal, QC Standard Operating Procedure (TB 12-04-06). The biopotential leads are placed in a modified lead II configuration. A minimum acclimation period of 6 days is allowed between animal arrival and the start of the surgical implantation of the telemetry devices in order to accustom the animals to the laboratory environment. A minimum recovery period of 4 weeks is allowed between surgeries and the start of treatment. […]
The parameters monitored include: heart rate derived from blood pressure, left ventricular pressure (LVP), and electrocardiogram waveforms; LVP (peak systolic and end-diastolic LVP and max positive/negative dP/dt values); electrocardiogram (PR interval (PR), RR variability (RR″), QRS complex (QRS), QT intervals, and QTcv calculated using the Van de Water equation QTcv=QT−87(60/HR−1)); and body temperature.
Marking of ECG segments is conducted using ECG Pattern Recognition software. A library for each animal is constructed of representative cycles from both the day and night cycle and is applied across monitoring occasions to ensure appropriate marking for quantitative assessments, in accordance with the appropriate Charles River Laboratories, Montreal, QC. […]

Sequence of human hERG (Q12809 whole entry): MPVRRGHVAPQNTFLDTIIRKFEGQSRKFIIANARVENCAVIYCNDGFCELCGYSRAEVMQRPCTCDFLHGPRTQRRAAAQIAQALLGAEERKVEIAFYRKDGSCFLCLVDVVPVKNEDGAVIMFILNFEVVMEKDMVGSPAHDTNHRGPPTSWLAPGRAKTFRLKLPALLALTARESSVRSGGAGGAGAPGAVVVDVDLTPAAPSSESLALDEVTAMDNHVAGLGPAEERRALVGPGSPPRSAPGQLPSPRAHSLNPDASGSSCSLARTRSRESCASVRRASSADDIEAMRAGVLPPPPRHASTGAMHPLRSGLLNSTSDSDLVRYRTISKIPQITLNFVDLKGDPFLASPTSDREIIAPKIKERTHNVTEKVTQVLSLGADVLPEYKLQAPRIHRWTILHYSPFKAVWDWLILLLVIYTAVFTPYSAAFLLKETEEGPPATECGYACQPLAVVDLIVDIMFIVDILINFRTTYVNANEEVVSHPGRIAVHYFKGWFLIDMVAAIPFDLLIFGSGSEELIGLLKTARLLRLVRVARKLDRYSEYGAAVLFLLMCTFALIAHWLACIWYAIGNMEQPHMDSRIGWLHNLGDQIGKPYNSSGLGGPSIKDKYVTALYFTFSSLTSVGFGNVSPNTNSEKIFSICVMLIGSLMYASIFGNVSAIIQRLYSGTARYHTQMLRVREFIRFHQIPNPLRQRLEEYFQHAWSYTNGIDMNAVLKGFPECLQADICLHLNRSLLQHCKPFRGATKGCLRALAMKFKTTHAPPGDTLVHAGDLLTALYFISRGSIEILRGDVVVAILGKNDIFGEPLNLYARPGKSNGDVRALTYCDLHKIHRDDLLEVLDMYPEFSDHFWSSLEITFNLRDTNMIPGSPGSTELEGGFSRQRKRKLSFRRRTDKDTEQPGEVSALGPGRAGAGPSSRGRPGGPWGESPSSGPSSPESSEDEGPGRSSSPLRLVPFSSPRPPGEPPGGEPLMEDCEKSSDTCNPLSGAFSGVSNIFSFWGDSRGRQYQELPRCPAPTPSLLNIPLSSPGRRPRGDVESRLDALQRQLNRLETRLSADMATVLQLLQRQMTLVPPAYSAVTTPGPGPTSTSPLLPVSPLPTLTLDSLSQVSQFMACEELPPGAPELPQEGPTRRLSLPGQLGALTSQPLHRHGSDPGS
Sequence of GPR6 receptor expressed in CHO-K1 cells (P46095 whole entry): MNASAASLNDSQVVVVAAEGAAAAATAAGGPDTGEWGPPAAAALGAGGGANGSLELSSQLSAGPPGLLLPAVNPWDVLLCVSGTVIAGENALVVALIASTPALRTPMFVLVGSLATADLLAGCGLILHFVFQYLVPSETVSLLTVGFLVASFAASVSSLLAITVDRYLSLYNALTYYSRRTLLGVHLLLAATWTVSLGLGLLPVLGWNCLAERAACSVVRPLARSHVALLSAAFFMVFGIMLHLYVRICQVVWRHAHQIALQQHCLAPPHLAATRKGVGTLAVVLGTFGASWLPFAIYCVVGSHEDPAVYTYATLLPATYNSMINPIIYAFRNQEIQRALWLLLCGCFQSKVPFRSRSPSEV
Sequence of human GPR6 (P46095 whole entry): as above

In series [1], `CC(=O)N1CCc2nc(N3CCC(Oc4ccc(F)cc4F)CC3)c(N[C@H]3CCOC3)nc2C1` [Compound A, (S)-1-(2-(4-(2,4-difluorophenoxy)piperidin-1-yl)-3-((tetrahydrofuran-3-yl)amino)-7,8-dihydropyrido[3,4-b]pyrazin-6(5H)-yl)ethan-1-one, reference compound] yielded a pEC50 of 7.2. Also, in series [2], the IC50 amounted to 505 nM and the “safety margin relative to inhibition of hERG” value is “suboptimal safety margin”. The same compound had an inhibition constant (Ki) in series [3] of 6 nM.

For the compound `CC(=O)N1CCc2nc(N3CCC(Oc4ccc(F)cc4F)CC3)c(N[C@@H]3CCOC3)nc2C1` [Formula 1, (R)-1-(2-(4-(2,4-difluorophenoxy)piperidin-1-yl)-3-((tetrahydrofuran-3-yl)amino)-7,8-dihydropyrido[3,4-b]pyrazin-6(5H)-yl)ethan-1-one], the pEC50 in series [1] is 7.2. Moreover, in series [2], the IC50 came to 1970 nM and the “safety margin relative to inhibition of hERG” value was “improved SM-free”. Further, the “hERG inhibition potency compared with Compound A” value in series [2] (comparison in words) is listed as “significantly less potent inhibitor of hERG than Compound A”. In addition, the locomotor activity result in series [4] (5 mg/kg and 10 mg/kg, compared to vehicle, after 50 minutes, FIG. 1) was “dose dependent improvement in locomotor activity”. Also, the locomotor activity result in series [4] (10 mg/kg dose) is on record as “significant increase in activity”. Also, the “arterial blood pressures, contractility, P-R interval, QRS complex, QT interval durations” value in series [5] was “No changes are observed”. In series [3], this compound registered a Ki of 5.5 nM.
